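All cell lines were grown in 96-well plates and treated with compound for 48 hours. GI50: concentration for 50% inhibition of growth.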 Activity calls are given as the source filed them. No stated cut-off is given here; in the data, active = GI50 up to about 1.1 µM and inactive = higher.
Columns and labels:
Assay in all cases: DTP human tumour cell line panel, 48 h
SR = test system: SR
NCI-H460 = test system: NCI-H460
CAKI-1 = test system: CAKI-1
SK-MEL-2 = test system: SK-MEL-2
MDA-N = test system: MDA-N
SK-MEL-28 = test system: SK-MEL-28
LOX IMVI = test system: LOX IMVI
OVCAR-8 = test system: OVCAR-8
HCC 2998 = test system: HCC 2998
NCI/ADR-RES = test system: NCI/ADR-RES
HOP-62 = test system: HOP-62
SK-MEL-5 = test system: SK-MEL-5
BT-549 = test system: BT-549
SF-295 = test system: SF-295
UACC-62 = test system: UACC-62
Malme-3M = test system: Malme-3M
UO-31 = test system: UO-31
HT-29 = test system: HT-29
HL-60 = test system: HL-60
K562 = test system: K562
MCF7 = test system: MCF7
IGROV-1 = test system: IGROV-1
CCRF-CEM = test system: CCRF-CEM
SF-539 = test system: SF-539
SNB-19 = test system: SNB-19
Hs-578T = test system: Hs-578T
U-251 = test system: U-251
SK-OV-3 = test system: SK-OV-3
NCI-H23 = test system: NCI-H23
RPMI-8226 = test system: RPMI-8226
ACHN = test system: ACHN
SW-620 = test system: SW-620
NCI-H522 = test system: NCI-H522
SF-268 = test system: SF-268
EKVX = test system: EKVX
PC-3 = test system: PC-3
A498 = test system: A498
UACC-257 = test system: UACC-257
MOLT-4 = test system: MOLT-4
T47D = test system: T47D
HCT-116 = test system: HCT-116
OVCAR-5 = test system: OVCAR-5
KM12 = test system: KM12
OVCAR-3 = test system: OVCAR-3
DU-145 = test system: DU-145
COLO 205 = test system: COLO 205
MDA-MB-435 = test system: MDA-MB-435
786-0 = test system: 786-0
A549 = test system: A549
OVCAR-4 = test system: OVCAR-4
HCT-15 = test system: HCT-15
M14 = test system: M14

For O=c1c(/C=C/c2c(O)ccc3ccccc23)nnc2sc(-c3cccc(Br)c3)nn12, the GI50 (SR) was 4.72 µM (inactive), the GI50 (NCI-H460) was 25.4 µM (inactive) and the GI50 (CAKI-1) was 15.3 µM (inactive). The GI50 (SK-MEL-2) was 23.6 µM (inactive), the GI50 (MDA-N) was 28.3 µM (inactive) and the GI50 (SK-MEL-28) was 20.8 µM (inactive). The GI50 (LOX IMVI) was 4.88 µM (inactive), the GI50 (OVCAR-8) was 3.44 µM (inactive) and the GI50 (HCC 2998) was 20.1 µM (inactive). The GI50 (NCI/ADR-RES) was 22.8 µM (inactive), the GI50 (HOP-62) was 24.8 µM (inactive) and the GI50 (SK-MEL-5) was 17.8 µM (inactive). The GI50 (BT-549) was 11.6 µM (inactive), the GI50 (SF-295) was 32.7 µM (inactive) and the GI50 (UACC-62) was 20.7 µM (inactive). For the same molecule, the GI50 (Malme-3M) was 23 µM (inactive), the GI50 (UO-31) was 13.4 µM (inactive) and the GI50 (HT-29) was 29.9 µM (inactive). For the same molecule, the GI50 (HL-60) was 3.94 µM (inactive), the GI50 (K562) was 19.9 µM (inactive) and the GI50 (MCF7) was 13.6 µM (inactive). The GI50 (IGROV-1) was 0.773 µM (active), the GI50 (CCRF-CEM) was 3.82 µM (inactive) and the GI50 (SF-539) was 63.8 µM (inactive). For the same molecule, the GI50 (SNB-19) was 39 µM (inactive), the GI50 (Hs-578T) was 35.9 µM (inactive) and the GI50 (U-251) was 25.2 µM (inactive). The GI50 (SK-OV-3) was 30.1 µM (inactive), the GI50 (NCI-H23) was 14.7 µM (inactive) and the GI50 (RPMI-8226) was 10.3 µM (inactive). The GI50 (ACHN) was 16.1 µM (inactive), the GI50 (SW-620) was 25.6 µM (inactive) and the GI50 (NCI-H522) was 15.5 µM (inactive). For the same molecule, the GI50 (SF-268) was 4.51 µM (inactive), the GI50 (EKVX) was 16.7 µM (inactive) and the GI50 (PC-3) was 22.4 µM (inactive). The GI50 (A498) was 26.7 µM (inactive), the GI50 (UACC-257) was 23.7 µM (inactive) and the GI50 (MOLT-4) was 3.4 µM (inactive). The GI50 (T47D) was 15 µM (inactive), the GI50 (HCT-116) was 22.5 µM (inactive) and the GI50 (OVCAR-5) was 19.5 µM (inactive). For the same molecule, the GI50 (KM12) was 20.7 µM (inactive), the GI50 (OVCAR-3) was 3.89 µM (inactive) and the GI50 (DU-145) was 16.1 µM (inactive). For the same molecule, the GI50 (COLO 205) was 39.2 µM (inactive), the GI50 (MDA-MB-435) was 21.1 µM (inactive) and the GI50 (786-0) was 26.6 µM (inactive). The GI50 (A549) was 32.1 µM (inactive), the GI50 (OVCAR-4) was 4.8 µM (inactive) and the GI50 (HCT-15) was 6.78 µM. For the same molecule, the GI50 (M14) was 15.8 µM (inactive).
